The target in one data set is EGFP-SD (Aequorea victoria, UniProt P42212, F64L/H231L/S65T). The data set is classed as cell-based, mouse. The conditions noted are these: stable; for DC50: read-out: DC50, EGFP-SD.
Another data set has as its target EGFP-IKZF (UniProt P42212+Q8C7D2, F64L/H231L/INS1V/S65T). The data set is classed as cell-based, mouse. Conditions: for Bottom, EGFP-IKZF / LogDC50, EGFP-IKZF / DC50: stable; for DC50: read-out: DC50, EGFP-IKZF.
The target of another data set is EGFP-ZFP91 (UniProt P42212+Q8C7D2, F64L/H231L/INS1V/S65T). The data set is classed as cell-based, mouse. The conditions noted are these: CrbnI391V/I391V mESCs; for Bottom, EGFP-ZFP91 / LogDC50, EGFP-ZFP91 / DC50: stable, Figure 5E; for DC50: read-out: DC50, EGFP-ZFP91.
The subject of data set [1] is degradation of SD-tagged EGFP. The data set can be described thus: Inhibition of IBR-induced degradation of SD-EGFP or EGFP-SD in B6J-S1 by pathway inhibitors. The data set is classed as cell-based, mouse. Conditions: B6J-S1, IBR fixed at 1 μM, 24 h.
For data set [2] the following is noted: in vivo; cited from earlier work.
Where [3] appears, read: CrbnI391V/I391V mESCs, Figure 5E.

The values below come from PMC12274739, “Differential substrate degradation by super-degron: EGFP in wild-type mouse cells, PD-1 requires CRBN humanization” (iScience, 2025).

Each structure is given as a SMILES string. Where two headings read alike, the source gives them in different places. Residues, ends and D or L forms follow the SMILES beside them. *: point of attachment. Cbz = O=C(OCc1ccccc1)*

For the molecule `Cc1nc2cccc(N)c2c(=O)n1C1CCC(=O)NC1=O` (centres unmarked) [AVA, avadomide], at EGFP-SD (B6J-S1 mESCs, Figure 5D), the “Bottom, EGFP-SD” value is reported as 0.01996; the “LogDC50, EGFP-SD” value is on record as -2.1 μM; the DC50 turned out to be 7.94 nM. Moreover, on EGFP-SD (setting [3]), the “Bottom, EGFP-SD” value was found to be 0.06758; the “LogDC50, EGFP-SD” value was -2.187 μM; the DC50 came out at 6.5 nM. Further, on EGFP-IKZF (B6J-S1 mESCs, Figure 5D), the “Bottom, EGFP-IKZF” value came to 0.07112; the “LogDC50, EGFP-IKZF” value was -0.9014 μM; the DC50 was found to be 126 nM. Further, at EGFP-IKZF (setting [3]), the “Bottom, EGFP-IKZF” value amounted to 0.1373; the “LogDC50, EGFP-IKZF” value is listed as -1.87 μM; the DC50 was found to be 13.5 nM. Besides, at EGFP-IKZF (mESCs, 0.1 and 1 μM), the “EGFP-IKZF amount compared to other reagents” value is on record as “significantly reduced”. On EGFP-ZFP91, the “Bottom, EGFP-ZFP91” value was 0.1629; the “LogDC50, EGFP-ZFP91” value is recorded as -1.296 μM; the DC50 amounted to 50.5 nM.

In the case of `CC(C)C[C@@H](C=O)NC(=O)[C@H](CC(C)C)NC(=O)[C@H](CC(C)C)NC(=O)OCc1ccccc1` [MG-132] (Cbz-Leu-Leu-Leu-aldehyde), in data set [1], the “effect on IBR-induced EGFP degradation” value is “inhibited in a concentration-dependent manner”.

Consider `NS(=O)(=O)OC[C@@H]1C[C@@H](n2ccc3c(N[C@H]4CCc5ccccc54)ncnc32)C[C@@H]1O` [MNL4924, pevonedistat], for which the “effect on IBR-induced EGFP degradation” value in data set [1] is listed as “inhibited in a concentration-dependent manner”.

In the case of `N#Cc1ccc(N2CCN(Cc3ccc(COc4cccc5c4CN([C@H]4CCC(=O)NC4=O)C5=O)cc3)CC2)c(F)c1` [MZG, mezigdomide], at EGFP-SD (B6J-S1 mESCs, Figure 5D), the “Bottom, EGFP-SD” value was 0.0126; the “LogDC50, EGFP-SD” value is -3.875 μM; the DC50 turned out to be 0.133 nM. Moreover, on EGFP-SD (setting [3]), the “Bottom, EGFP-SD” value was found to be 0.0164; the “LogDC50, EGFP-SD” value was -4.187 μM; the DC50 is 0.0651 nM. On EGFP-IKZF (B6J-S1 mESCs, Figure 5D), the “Bottom, EGFP-IKZF” value came to 0.385; the “LogDC50, EGFP-IKZF” value is -1.952 μM; the DC50 worked out at 11.2 nM. Further, on EGFP-IKZF (setting [3]), the “Bottom, EGFP-IKZF” value came to 0.1226; the “LogDC50, EGFP-IKZF” value is listed as -3.265 μM; the DC50 stood at 0.543 nM. At EGFP-ZFP91, the “degradation of EGFP-ZFP91” value is on record as “efficiently degraded”; the “Bottom, EGFP-ZFP91” value stood at 0.03183; the “LogDC50, EGFP-ZFP91” value is given as -3.343 μM; the DC50 is 0.454 nM.

On to `CCOC(=O)c1ccc(N2NC(=O)/C(=C/c3ccc([N+](=O)[O-])o3)C2=O)cc1` [PYR-41], for which the “effect on IBR-induced EGFP degradation” value in data set [1] is listed as “did not affect the degradation of EGFP”.

`NS(=O)(=O)OC[C@H]1C[C@@H](Nc2ccnc3cc(-c4cccc(SC(F)(F)F)c4)nn23)[C@H](O)[C@@H]1O` [TAK-243]: in data set [1], the “effect on IBR-induced EGFP degradation” value is “inhibited in a concentration-dependent manner”.

Take `CCN(CC)CCCC(C)Nc1ccnc2cc(Cl)ccc12` (centres unmarked) [chloroquine]: the “effect on IBR-induced EGFP degradation” value in data set [1] was “but not by chloroquine”.

Turning to `CC[C@H](C(=O)N1CCCC[C@H]1C(=O)O[C@H](CCc1ccc(OC)c(OC)c1)c1ccccc1OCC(=O)NCCCCCCOc1cccc2c1C(=O)N(C1CCC(=O)NC1=O)C2=O)c1cc(OC)c(OC)c(OC)c1` (some centres unmarked) [dTAG-13], in data set [2], the “blood-brain barrier (BBB) passage” value was “cannot cross the blood-brain barrier”.
